Experimental data published in BindingDB's records for doi:10.1021/jm801026e (Wyeth Research, 2009).

Assays:
[1] = Inhibition of retinoblastoma susceptibility gene product phosphorylation in human MCF7 cells after 24 hrs
[2] = target: 3-phosphoinositide-dependent protein kinase 1 (Homo sapiens) (UniProt O15530); experiment: Inhibition of PDK1

| Compound | IC50 [1] | IC50 [2] |
| --- | --- | --- |
| O=C1NC(=O)c2ccc(I)cc2C1=CNCc1ccc(-c2ccoc2)c(O)c1 [4-[(4-Furan-3-yl-3-hydroxy-benzylamino)-methylene]-6-iodo-4Hisoquinoline-1,3-dione] | 610 nM | 17000 nM |
| O=C1NC(=O)c2ccc(I)cc2C1=CNCc1ccn(-c2ccoc2)c(=O)c1 [(4Z)-4-[({[1-(3-Furyl)-2-oxo-1,2-dihydropyridin-4-yl]methyl}-amino)methylene]-6-iodoisoquinoline-1,3(2H,4H)-dione] | 370 nM |  |
| CCCOc1cnc(CNC=C2C(=O)NC(=O)c3ccc(C(C)(C)C)cc32)cc1O [6-tert-Butyl-4-{[(4-hydroxy-5-propoxy-pyridin-2-ylmethyl)-amino]-methylene}-4H-isoquinoline-1,3-dione] | 200 nM |  |
